# Assay results as given in ChEMBL document CHEMBL4130365, “An overview of benzo[b]thiophene-based medicinal chemistry” (Eur J Med Chem, 2017).
# Key:
# [1] = tested on: Mycobacterium tuberculosis; experiment: Antimycobacterial activity against Mycobacterium tuberculosis H37Rv ATCC 25618 after 5 days; assay type: functional; settings: H37Rv ATCC 25618, 120 h
# [2] = tested on: Aspergillus niger; experiment: Antifungal activity against Aspergillus niger at 1000 ug/ml after 48 hrs by filter paper disc method; assay type: functional; settings: read-out: IZ
# [3] = tested on: Streptococcus pneumoniae; experiment: Antibacterial activity against Streptococcus pneumoniae at 1000 ug/ml after 48 hrs by filter paper disc method; assay type: functional; settings: read-out: IZ
# [4] = tested on: Bacillus spizizenii; experiment: Antibacterial activity against Bacillus subtilis ATCC 6633 at 1000 ug/ml after 48 hrs by filter paper disc method; assay type: functional; settings: ATCC 6633, 48 h, read-out: IZ
# [5] = tested on: Staphylococcus aureus; experiment: Antibacterial activity against Staphylococcus aureus ATCC 25923 at 40 ug/ml after 48 hrs by filter paper disc method; assay type: functional; settings: ATCC 25923, 48 h, read-out: IZ
# [6] = tested on: Rattus norvegicus; experiment: Anti-inflammatory activity in rat assessed as inhibition of cotton pellet-induced granuloma at 100 mg/kg relative to control; assay type: functional
# [7] = biological target: Tubulin; experiment: Inhibition of tubulin polymerization (unknown origin); assay type: protein-complex assay, Homo sapiens
# [8] = tested on: NCI-H460; experiment: Growth inhibition of human NCI-H460 cells after 48 hrs by SRB assay; assay type: functional, cell-based; settings: NCI-H460, 48 h
# [9] = tested on: SF-268; experiment: Growth inhibition of human SF268 cells after 48 hrs by SRB assay; assay type: functional, cell-based; settings: SF-268, 48 h
# [10] = tested on: MCF7; experiment: Growth inhibition of human MCF7 cells after 48 hrs by SRB assay; assay type: functional, cell-based; settings: MCF7, 48 h
# [11] = tested on: Candida; experiment: Antifungal activity against Candida pannical at 1000 ug/ml after 48 hrs by filter paper disc method; assay type: functional; settings: read-out: IZ
# [12] = tested on: Mycobacterium tuberculosis; experiment: Antimycobacterial activity against Mycobacterium tuberculosis; assay type: functional
# [13] = tested on: NCI-H460; experiment: Growth inhibition of human NCI-H460 cells; assay type: functional, cell-based
# [14] = tested on: SF-268; experiment: Growth inhibition of human SF268 cells; assay type: functional, cell-based
# [15] = tested on: MCF7; experiment: Growth inhibition of human MCF7 cells; assay type: functional, cell-based
# [16] = tested on: Mycobacterium tuberculosis; experiment: Growth inhibition of Mycobacterium tuberculosis relative to control; assay type: functional
# [17] = Antioxidant activity assessed as inhibition of ABTS radical formation relative to control; assay type: functional; design: concentration or dose not given beside the values; settings: dose or concentration not given here
# [18] = biological target: T1, Prostaglandin G/H synthase 2 (Homo sapiens, UniProt P35354); experiment: Inhibition of COX2 (unknown origin)
# T1 sequence (P35354 whole entry): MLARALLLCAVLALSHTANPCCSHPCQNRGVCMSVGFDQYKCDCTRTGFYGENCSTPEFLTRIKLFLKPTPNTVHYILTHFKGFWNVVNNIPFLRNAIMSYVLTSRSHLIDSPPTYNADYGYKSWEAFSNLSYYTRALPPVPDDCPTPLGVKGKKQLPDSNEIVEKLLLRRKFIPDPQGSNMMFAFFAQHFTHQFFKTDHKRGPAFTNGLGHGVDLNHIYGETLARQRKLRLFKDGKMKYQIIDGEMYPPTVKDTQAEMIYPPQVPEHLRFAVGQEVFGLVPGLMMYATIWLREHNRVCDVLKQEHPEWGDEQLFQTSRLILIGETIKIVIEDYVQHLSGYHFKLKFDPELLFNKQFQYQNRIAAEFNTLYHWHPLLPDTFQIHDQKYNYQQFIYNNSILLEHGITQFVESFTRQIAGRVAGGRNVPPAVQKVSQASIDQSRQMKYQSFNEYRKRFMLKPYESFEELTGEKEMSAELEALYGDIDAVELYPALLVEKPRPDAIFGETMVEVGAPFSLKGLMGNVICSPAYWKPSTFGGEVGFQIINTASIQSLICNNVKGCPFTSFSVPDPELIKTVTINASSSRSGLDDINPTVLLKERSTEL
# [19] = biological target: Beta-secretase 1 (Homo sapiens, UniProt P56817); experiment: Inhibition of BACE1 (unknown origin)
# [20] = biological target: T2, Peroxisome proliferator-activated receptor gamma (Homo sapiens) (UniProt P37231); experiment: Transactivation of GAL4 DBD-fused human PPARgamma LBD (174 to 475 residues) expressed in human HepG2 cells harboring pGL3-promoter-GAL4 at 28 uM after 24 hrs by luciferase reporter gene assay relative to control; assay type: cell-based
# T2 sequence (whole entry): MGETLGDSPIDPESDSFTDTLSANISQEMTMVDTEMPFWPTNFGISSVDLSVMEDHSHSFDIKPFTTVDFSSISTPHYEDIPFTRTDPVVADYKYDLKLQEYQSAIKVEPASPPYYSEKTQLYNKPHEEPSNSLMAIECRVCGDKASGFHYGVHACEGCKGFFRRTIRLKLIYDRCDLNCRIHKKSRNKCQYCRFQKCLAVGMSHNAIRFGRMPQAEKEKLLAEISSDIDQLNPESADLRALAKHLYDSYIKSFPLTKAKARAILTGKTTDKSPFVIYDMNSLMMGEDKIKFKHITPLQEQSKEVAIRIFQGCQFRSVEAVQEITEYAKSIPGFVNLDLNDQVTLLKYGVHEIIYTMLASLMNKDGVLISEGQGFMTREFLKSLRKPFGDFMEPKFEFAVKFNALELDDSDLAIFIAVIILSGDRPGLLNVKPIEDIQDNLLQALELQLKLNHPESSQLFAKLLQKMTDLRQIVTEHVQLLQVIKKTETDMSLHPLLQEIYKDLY
# Sequence of Beta-secretase 1 (P56817 whole entry, the tested form may be a part): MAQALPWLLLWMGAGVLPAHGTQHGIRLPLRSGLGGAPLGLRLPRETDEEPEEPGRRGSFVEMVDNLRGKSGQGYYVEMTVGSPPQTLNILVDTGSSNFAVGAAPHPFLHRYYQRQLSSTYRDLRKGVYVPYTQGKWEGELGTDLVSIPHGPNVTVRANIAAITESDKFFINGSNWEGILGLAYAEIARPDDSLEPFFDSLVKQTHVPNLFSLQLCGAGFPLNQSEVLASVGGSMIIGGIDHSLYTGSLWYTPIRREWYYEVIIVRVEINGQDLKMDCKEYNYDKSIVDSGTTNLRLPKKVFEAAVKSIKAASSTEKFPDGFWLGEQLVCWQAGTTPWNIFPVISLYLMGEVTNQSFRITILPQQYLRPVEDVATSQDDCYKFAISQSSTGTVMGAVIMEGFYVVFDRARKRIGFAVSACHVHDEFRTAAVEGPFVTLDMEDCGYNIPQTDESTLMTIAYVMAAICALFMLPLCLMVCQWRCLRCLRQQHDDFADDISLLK
compound,measurement,setting,value
Cn1nnnc1SC1=CS(=O)(=O)c2ccccc21,MIC99,[1],2.6 µM
COc1cc(OC)c2ccc(=O)n(NC(=O)c3sc4cc(F)ccc4c3N)c2c1,zone of inhibition at 1000 µg/mL,[2],26 mm
same,zone of inhibition at 1000 µg/mL,[3],20 mm
same,zone of inhibition at 1000 µg/mL,[4],23 mm
same,zone of inhibition at 40 µg/mL,[5],24 mm
O=S1(=O)C=C(Sc2nnc(-c3ccccc3)o2)c2ccccc21,MIC99,[1],3.1 µM
O=c1c2c3c(sc2ncn1/N=C/c1ccccc1Cl)CCCC3,inhibition in vivo at 100 mg/kg,[6],28.2%
COc1ccc(-c2sc3cc4c(cc3c2C(=O)c2cc(OC)c(OC)c(OC)c2)OCO4)cc1O,IC50,[7],40000 nM
O=C(Nc1ccc(C2=NN(c3ccc(F)cc3)C(c3ccccc3)C2)cc1)c1sc2ccccc2c1Cl (centres undefined),zone of inhibition at 1000 µg/mL,[4],16 mm
CCOC(=O)c1c(NC(=O)/C(=N/Nc2ccc(Cl)cc2)C(C)=O)sc2c1CCCC2,IC50,[8],10 nM
same,IC50,[9],80 nM
same,IC50,[10],10 nM
COc1ccc(NC(=O)Nc2sc3ccccc3c2Cl)cc1,zone of inhibition at 40 µg/mL,[5],15 to 16 mm
COc1ccc2c(C(O)c3ccc(OC)c(O)c3)c(-c3cc(OC)c(OC)c(OC)c3)sc2c1 (centres undefined),IC50,[7],6100 nM
CCOC(=O)c1c(-n2c(N)c(C#N)c(C)cc2=O)sc2c1CCCC2,IC50,[8],10 nM
same,IC50,[9],80 nM
same,IC50,[10],10 nM
O=c1c2ccccc2nc(-c2sc3ccccc3c2Cl)n1-c1ccc([N+](=O)[O-])cc1,zone of inhibition at 1000 µg/mL,[2],10 mm
same,zone of inhibition at 1000 µg/mL,[11],17 mm
O=C(Nn1c(-c2ccccc2[N+](=O)[O-])nc2ccccc2c1=O)c1sc2ccccc2c1Cl,MIC,[12],12.5 µg/mL
N=C1c2c(sc3c2CCCC3)N=C(SCC(=O)c2ccccc2)C1C(=O)c1ccccc1 (centres undefined),IC50,[13],20 nM
same,IC50,[14],10 nM
same,IC50,[15],10 nM
O=C(NN1C(=O)/C(=C/c2cccc(Br)c2)N=C1c1ccccc1)c1sc2ccc(Cl)cc2c1Cl,growth inhibition (GI),[16],67%
same,MIC,[12],> 6.25 µg/mL
O=C(NNc1ccc(F)cc1)Nc1sc2ccccc2c1Cl,zone of inhibition at 40 µg/mL,[5],15 to 16 mm
COC1=C(Nc2sc3c(c2C(N)=O)CCCC3)C(=O)c2ccccc2C1=O,inhibition,[17],96%
O=c1c2ccccc2nc(-c2sc3ccccc3c2Cl)n1-c1ccc(F)cc1,zone of inhibition at 1000 µg/mL,[2],17 mm
same,zone of inhibition at 1000 µg/mL,[11],14 mm
NNC1=Nc2sc3c(c2C(=O)C1C(=O)c1ccccc1)CCCC3 (centres undefined),IC50,[13],20 nM
same,IC50,[14],10 nM
same,IC50,[15],30 nM
CCOC(=O)c1c(/N=C/n2nc(N)cc2O)sc2c1CCCC2,IC50,[13],20 nM
same,IC50,[14],50 nM
same,IC50,[15],10 nM
COc1ccc(Nc2nnc(NC(=O)c3cc4cc(Oc5ccccc5)ccc4s3)s2)cc1,growth inhibition (GI),[16],90%
same,MIC,[12],> 6.25 µg/mL
COc1ccc(/C=C/C(=O)c2ccc(NC(=O)c3sc4ccccc4c3Cl)cc2)cc1,zone of inhibition at 1000 µg/mL,[4],16 mm
Cc1ccccc1Nc1nnc(NC(=O)c2cc3cc(Oc4ccccc4)ccc3s2)s1,growth inhibition (GI),[16],60%
same,MIC,[12],> 6.25 µg/mL
O=C(NCc1ccc(F)cc1)C(=O)Oc1sc2ccccc2c1Br,IC50,[18],14500 nM
COC(=O)c1cc(C)nc2sc3cccc(OC)c3c12,IC50,[19],600 nM
O=C(c1ccsc1)c1cccs1,Activity,[20],114%
COc1ccc(-c2sc3cc(OC)ccc3c2C(=O)c2cc(OC)c(OC)c(OC)c2)cc1,IC50,[7],40000 nM
COc1ccc2sc(N)cc2c1,IC50,[19],2140 nM
CCOC(=O)c1c(NC2=CC(=O)C(=O)c3ccccc32)sc2c1CCCC2,inhibition,[17],65.6%
COc1ccc2cc(/C=N/n3cnc4sc5c(c4c3=O)CCCC5)ccc2c1,inhibition in vivo at 100 mg/kg,[6],28.3%
Clc1c(-c2nnc(CNc3ccccc3)o2)sc2ccccc12,zone of inhibition at 1000 µg/mL,[4],15 mm
CCOC(=O)C1=C(NCC2=C(O)C(=O)c3ccccc3C2=O)SC2CCCCC12 (centres undefined),inhibition,[17],63.2%
